Experimental data: patent publication US11597724B2, “Herbicidally active 3-phenylisoxazoline-5-carboxamides of tetrahydro and dihydrofuran carboxylic acids and esters” (Bayer Aktiengesellschaft, priority 2017, dated 2023)

Legend:
Type in all cases: in vivo
Alopecurus myosuroides = assay: Post-emergence herbicidal activity against ALOMY; conditions: dosage 320 g/ha, rated about 3 weeks after treatment; for pest or weed control at 320 g/ha: Alopecurus myosuroides, 504 h
Experimental: (§1) ABUTH: Abutilon theophrasti ALOMY: Alopecurus myosuroides 2. Post-Emergence Herbicidal Action and Crop Plant Compatibility Seeds of monocotyledonous and dicotyledonous weeds and crop plants are placed in sandy loam in plastic or wood-fiber pots, covered with soil and cultivated in a greenhouse under controlled growth conditions. 2 to 3 weeks after sowing, the test plants are treated at the one-leaf stage. The compounds of the invention, formulated in the form of wettable powders (WP) or as emulsion concentrates (EC), are then sprayed onto the green parts of the plants as aqueous suspension or emulsion with addition of 0.5% additive at a water application rate of 600 l/ha (converted). After the test plants had been kept in the greenhouse under optimum growth conditions for about 3 weeks, the activity of the preparations is rated visually in comparison to untreated controls. For example, 100% activity=the plants have died, 0% activity=like control plants.

Avena fatua = assay: Post-emergence herbicidal activity against AVEFA; conditions: dosage 320 g/ha, rated about 3 weeks after treatment; for pest or weed control at 320 g/ha: Avena fatua, 504 h
Experimental: as §1, with “AMARE: Amaranthus retroflexus AVEFA: Avena fatua” for “ABUTH: Abutilon theophrasti ALOMY: Alopecurus myosuroides”

Echinochloa crus-galli = assay: Post-emergence herbicidal activity against ECHCG; conditions: dosage 320 g/ha, rated about 3 weeks after treatment; for pest or weed control at 320 g/ha: Echinochloa crus-galli, 504 h
Experimental: as §1, with “ECHCG: Echinochloa crus-galli HORMU: Hordeum murinum” for “ABUTH: Abutilon theophrasti ALOMY: Alopecurus myosuroides”

Lolium rigidum = assay: Post-emergence herbicidal activity against LOLRI; conditions: dosage 320 g/ha, rated about 3 weeks after treatment
Experimental: as §1, with “LOLRI: Lolium rigidum PHBPU: Pharbitis purpurea” for “ABUTH: Abutilon theophrasti ALOMY: Alopecurus myosuroides”

Setaria viridis = assay: Post-emergence herbicidal activity against SETVI; conditions: dosage 320 g/ha, rated about 3 weeks after treatment; for pest or weed control at 320 g/ha: Setaria viridis, 504 h
Experimental: as §1, with “POLCO: Polygonum convolvulus SETVI: Setaria viridis” for “ABUTH: Abutilon theophrasti ALOMY: Alopecurus myosuroides”

Abutilon theophrasti = assay: Post-emergence herbicidal activity against ABUTH; conditions: dosage 320 g/ha, rated about 3 weeks after treatment
Experimental: as §1

Amaranthus retroflexus = assay: Post-emergence herbicidal activity against AMARE; conditions: dosage 320 g/ha, rated about 3 weeks after treatment; for pest or weed control at 320 g/ha: Amaranthus retroflexus, 504 h
Experimental: as §1, with “AMARE: Amaranthus retroflexus AVEFA: Avena fatua” for “ABUTH: Abutilon theophrasti ALOMY: Alopecurus myosuroides”

Pharbitis purpurea = assay: Post-emergence herbicidal activity against PHBPU; conditions: dosage 320 g/ha, rated about 3 weeks after treatment; for pest or weed control at 320 g/ha: Ipomoea purpurea, 504 h
Experimental: as §1, with “LOLRI: Lolium rigidum PHBPU: Pharbitis purpurea” for “ABUTH: Abutilon theophrasti ALOMY: Alopecurus myosuroides”

Polygonum convolvulus = assay: Post-emergence herbicidal activity against POLCO; conditions: dosage 320 g/ha, rated about 3 weeks after treatment; for pest or weed control at 320 g/ha: Fallopia convolvulus, 504 h
Experimental: as §1, with “POLCO: Polygonum convolvulus SETVI: Setaria viridis” for “ABUTH: Abutilon theophrasti ALOMY: Alopecurus myosuroides”

Stellaria media = assay: Post-emergence herbicidal activity against STEME; conditions: dosage 320 g/ha, rated about 3 weeks after treatment; for pest or weed control at 320 g/ha: Stellaria media, 504 h
Experimental: as §1, with “STEME: Stellaria media VERPE: Veronica persica” for “ABUTH: Abutilon theophrasti ALOMY: Alopecurus myosuroides”

Viola tricolor = assay: Post-emergence herbicidal activity against VIOTR; conditions: dosage 320 g/ha, rated about 3 weeks after treatment
Experimental: as §1, with “VIOTR: Viola tricolor” for “ABUTH: Abutilon theophrasti ALOMY: Alopecurus myosuroides”

Veronica persica = assay: Post-emergence herbicidal activity against VERPE; conditions: dosage 320 g/ha; for pest or weed control at 320 g/ha: Veronica persica, 504 h
Experimental: as §1, with “STEME: Stellaria media VERPE: Veronica persica” for “ABUTH: Abutilon theophrasti ALOMY: Alopecurus myosuroides”

Hordeum murinum = assay: Post-emergence herbicidal activity against HORMU; conditions: dosage 320 g/ha
Experimental: as §1, with “ECHCG: Echinochloa crus-galli HORMU: Hordeum murinum” for “ABUTH: Abutilon theophrasti ALOMY: Alopecurus myosuroides”

[1] = Post-emergence treatment, summary over harmful plants; conditions: 504 h, application rate of 0.32 kg of active substance or less per hectare, read-out: herbicidal action, post-emergence treatment (very good herbicidal activity)
Experimental: 2. Post-Emergence Herbicidal Action and Crop Plant Compatibility
as §1, with “Seeds” for “ABUTH: Abutilon theophrasti ALOMY: Alopecurus myosuroides 2. Post-Emergence Herbicidal Action and Crop Plant Compatibility Seeds”
As shown by the results, compounds according to the invention such as, for example, the compounds No. I-35 and other compounds from the tables (for example I-28, I-38, I-01, I-19, I-36, I-29, I-32, I-11, I-12, I-37, I-06, I-09, I-33, I-34, I-13, I-04, I-26, I-21, I-30, I-05, I-03, I-20, I-27, I-14, I-10, I-23, I-07, I-25, I-02, I-08, I-24, I-41, I-42, I-43, I-44, I-46, I-49, I-54, I-55, I-56) have, when used for post-emergence treatment, very good herbicidal activity (80% to 100% herbicidal action) against harmful plants such as Abutilon theophrasti, Alopecurus myosuroides, Amaranthus retroflexus, Avena fatua, Echinochloa crus-galli, Hordeum murinum, Lolium rigidum, Pharbitis purpurea, Polygonum convolvulus, Setaria viridis, Stellaria media, Veronica persica and Viola tricolor at an application rate of 0.32 kg of active substance or less per hectare.

SMILES | Post-emergence herbicidal activity against ALOMY in % (Alopecurus myosuroides) [%] | Post-emergence herbicidal activity against AVEFA in % (Avena fatua) [%] | Post-emergence herbicidal activity against ECHCG in % (Echinochloa crus-galli) [%] | Post-emergence herbicidal activity against LOLRI in % (Lolium rigidum) [%] | Post-emergence herbicidal activity against SETVI in % (Setaria viridis) [%] | Post-emergence herbicidal activity against ABUTH in % (Abutilon theophrasti) [%] | Post-emergence herbicidal activity against AMARE in % (Amaranthus retroflexus) [%] | Post-emergence herbicidal activity against PHBPU in % (Pharbitis purpurea) [%] | Post-emergence herbicidal activity against POLCO in % (Polygonum convolvulus) [%] | Post-emergence herbicidal activity against STEME in % (Stellaria media) [%] | Post-emergence herbicidal activity against VIOTR in % (Viola tricolor) [%] | Post-emergence herbicidal activity against VERPE in % (Veronica persica) [%] | Post-emergence herbicidal activity against HORMU in % (Hordeum murinum) [%] | pest or weed control at 320 g/ha (Alopecurus myosuroides) [%] | pest or weed control at 320 g/ha (Avena fatua) [%] | pest or weed control at 320 g/ha (Echinochloa crus-galli) [%] | pest or weed control at 320 g/ha (Setaria viridis) [%] | pest or weed control at 320 g/ha (Pharbitis purpurea) [%] | pest or weed control at 320 g/ha (Polygonum convolvulus) [%] | pest or weed control at 320 g/ha (Veronica persica) [%] | other results
C=CC1(C(=O)NC2COC(C(=O)OCc3cccc(F)c3)C2)CC(c2cc(F)cc(F)c2)=NO1 (mixture of isomers) [I-52] | 90 | 90 | 90 | 90 | 90 | 90 | 90 | 90 | 90 | 90 | 90 | 90 | 90 | – | – | – | – | – | – | – | –
CC1(C(=O)NC2COC(C(=O)OCc3cccc(F)c3)C2)CC(c2cc(F)cc(F)c2)=NO1 (mixture of isomers) [I-53] | 90 | 90 | 90 | 90 | 90 | 90 | 90 | 90 | 90 | 90 | 90 | 90 | 90 | – | – | – | – | – | – | – | –
COC(=O)[C@H]1C[C@@H](NC(=O)C2(C)CC(c3cccc(F)c3)=NO2)CO1 (relative stereo) [I-13, methyl cis-4-[[3-(3-fluorophenyl)-5-methyl-4H-isoxazole-5-carbonyl]amino]tetrahydrofuran-2-carboxylate] | – | – | – | – | – | – | – | – | – | – | – | – | – | 90 | 90 | 80 | 80 | 90 | 80 | 80 | pest or weed control at 320 g/ha [1]: 80 to 100%
CC1(C(=O)N[C@H]2CO[C@@H](C(=O)O)C2)CC(c2cccc(F)c2)=NO1 (relative stereo) [I-20, cis-4-[[3-(3-fluorophenyl)-5-methyl-4H-isoxazole-5-carbonyl]amino]tetrahydrofuran-2-carboxylic acid] | – | – | – | – | – | – | – | – | – | – | – | – | – | 90 | 90 | 80 | 80 | 80 | 80 | 90 | pest or weed control at 320 g/ha (Amaranthus retroflexus): 80%; pest or weed control at 320 g/ha (Stellaria media): 80%; pest or weed control at 320 g/ha [1]: 80 to 100%
COC(=O)[C@]1(OC)C[C@H](NC(=O)C2(C)CC(c3cccc(F)c3)=NO2)CO1 (stereo partly drawn) [I-40, methyl (2S,4S)-4-[[3-(3-fluorophenyl)-5-methyl-4H-isoxazole-5-carbonyl]amino]-2-methoxytetrahydrofuran-2-carboxylate] | – | – | – | – | – | – | – | – | – | – | – | – | – | 90 | – | 80 | 80 | 90 | 80 | 80 | pest or weed control at 320 g/ha (Amaranthus retroflexus): 80%; pest or weed control at 320 g/ha (Stellaria media): 80%; pest or weed control at 320 g/ha (Hordeum murinum; Hordeum murinum, 504 h): 90%
